We go through one compound from US7888464B2, “Hepatitis C virus inhibitors” (Bristol-Myers Squibb Company, priority 2006, dated 2011).

For this experiment, the target named is T1, HCV NS3/4A protease complex, J4L6S strain (1b genotype) (Hepatitis C virus genotype 1b, UniProt O92972, C1454S/C1711G).
T1 construct: DNA encoding the recombinant HCV NS3/4A protease complex (amino acids 1027 to 1711) for these strains; made in house; host or cells: Escherichia coli BL21 (DE3), pET21b
Description: FRET peptide assay to monitor HCV NS3/4A proteolytic activity (J4L6S strain). The class given is biochemical. To be noted: read-out: IC50 against NS3/4A J4L6S strain. From the text: HCV NS3 protease complexes, derived from the BMS strain, H77 strain or J4L6S strain, were generated, as described below. These purified recombinant proteins were generated for use in a homogeneous assay (see below) to provide an indication of how effective compounds of the present disclosure would be in inhibiting HCV NS3 proteolytic activity.
Serum from an HCV-infected patient was obtained from Dr. T. Wright, San Francisco Hospital. An engineered full-length cDNA (compliment deoxyribonucleic acid) template of the HCV genome (BMS strain) was constructed from DNA fragments obtained by reverse transcription-PCR(RT-PCR) of serum RNA (ribonucleic acid) and using primers selected on the basis of homology between other genotype la strains. From the determination of the entire genome sequence, a genotype la was assigned to the HCV isolate according to the classification of Simmonds et al. (See P Simmonds, K A Rose, S Graham, S W Chan, F McOmish, B C Dow, E A Follett, P L Yap and H Marsden, J. Clin. Microbiol., 31(6), 1493-1503 (1993)). […]

T1 sequence (O92972 1027-1711 C1454S/C1711G, one chain of several): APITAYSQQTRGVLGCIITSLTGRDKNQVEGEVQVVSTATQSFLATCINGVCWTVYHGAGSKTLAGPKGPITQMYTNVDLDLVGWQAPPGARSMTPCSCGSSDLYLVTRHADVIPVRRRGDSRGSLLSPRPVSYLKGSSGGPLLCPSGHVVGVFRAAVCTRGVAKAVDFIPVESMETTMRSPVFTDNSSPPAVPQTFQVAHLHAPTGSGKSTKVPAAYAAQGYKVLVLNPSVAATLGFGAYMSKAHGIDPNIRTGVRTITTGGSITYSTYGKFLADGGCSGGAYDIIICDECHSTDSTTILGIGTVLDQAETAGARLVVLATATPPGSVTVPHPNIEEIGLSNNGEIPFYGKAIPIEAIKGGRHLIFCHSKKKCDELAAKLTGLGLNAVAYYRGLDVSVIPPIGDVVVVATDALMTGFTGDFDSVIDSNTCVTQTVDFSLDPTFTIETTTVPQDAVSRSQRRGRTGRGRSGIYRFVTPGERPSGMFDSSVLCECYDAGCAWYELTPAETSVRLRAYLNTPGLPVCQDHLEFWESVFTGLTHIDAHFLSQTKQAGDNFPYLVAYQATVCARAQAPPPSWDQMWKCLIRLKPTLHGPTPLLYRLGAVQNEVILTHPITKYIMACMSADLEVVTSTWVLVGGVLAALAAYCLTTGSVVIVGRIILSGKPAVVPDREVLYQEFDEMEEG

Regarding `C=C[C@@H]1C[C@]1(NC(=O)[C@@H]1C[C@@](O)(c2ccc(-c3ccccc3)cc2)CN1C(=O)[C@@H](NC(=O)OC(C)(C)C)C(C)(C)C)C(=O)NS(=O)(=O)C1CC1` [Compound 3], the IC50 stood at 1.1 nM.
